Data reported in article PMC5218480 (PLoS ONE, 2017).

Tested on: MV-4-11 cells
Test: Gene expression microarray analysis (Affymetrix PrimeView) and GSEA
Format: cell-based, human
Design: RFU PODN (11730768_x_at) / Fold change /veh PODN (11730768_x_at) / RFU LINC00158 (11744669_a_at) / Fold change /veh LINC00158 (11744669_a_at) / RFU DUSP10 (11751237_a_at) / Fold change /veh DUSP10 (11751237_a_at) / RFU ID3 (11757404_x_at) / Fold change /veh ID3 (11757404_x_at) / RFU PLEKHG5 (11737974_s_at) / Fold change /veh PLEKHG5 (11737974_s_at) / RFU LRRC4B (11730491_at) / Fold change /veh LRRC4B (11730491_at) / RFU GIMAP4 (11747438_a_at) / Fold change /veh GIMAP4 (11747438_a_at) / RFU KRT8 (11758183_x_at) / Fold change /veh KRT8 (11758183_x_at) / RFU CNN1 (11734310_a_at) / Fold change /veh CNN1 (11734310_a_at) / RFU VPS37D (11726825_at) / Fold change /veh VPS37D (11726825_at) / RFU C10orf10 (11716522_x_at) / Fold change /veh C10orf10 (11716522_x_at) / RFU KIR2DL2 /// KIR2DL4 /// KIR2DL5A /// KIR2DL5B /// KIR2DS1 /// KIR2DS2 /// KIR2DS3 /// KIR2DS4 /// KIR3DL3 /// KIR3DL3 /// KIR3DS1 (11738374_at) / Fold change /veh KIR2DL2 /// KIR2DL4 /// KIR2DL5A /// KIR2DL5B /// KIR2DS1 /// KIR2DS2 /// KIR2DS3 /// KIR2DS4 /// KIR3DL3 /// KIR3DL3 /// KIR3DS1 (11738374_at) / RFU C1QL1 (11718748_at) / Fold change /veh C1QL1 (11718748_at) / RFU TMPRSS4 (11747572_a_at) / Fold change /veh TMPRSS4 (11747572_a_at) / RFU HAMP (11756126_x_at) / Fold change /veh HAMP (11756126_x_at) / RFU RNFT2 (11725882_a_at) / Fold change /veh RNFT2 (11725882_a_at) / RFU NR4A2 (11747474_a_at) / Fold change /veh NR4A2 (11747474_a_at) / RFU ABCC12 (11746883_a_at) / Fold change /veh ABCC12 (11746883_a_at) / RFU TMEM136 (11760407_x_at) / Fold change /veh TMEM136 (11760407_x_at) / RFU CLDN22 /// WWC2 (11732394_at) / Fold change /veh CLDN22 /// WWC2 (11732394_at) / RFU HLA-DPB1 (11760878_x_at) / Fold change /veh HLA-DPB1 (11760878_x_at) / RFU SPINT1 (11716480_a_at) / Fold change /veh SPINT1 (11716480_a_at) / RFU GAP43 (11754022_s_at) / Fold change /veh GAP43 (11754022_s_at) / RFU A4GNT (11735810_at) / Fold change /veh A4GNT (11735810_at) / RFU PRB3 (11715151_x_at) / Fold change /veh PRB3 (11715151_x_at) / RFU TUBB4B (11761932_at) / Fold change /veh TUBB4B (11761932_at) / RFU CAPN14 (11732068_a_at) / Fold change /veh CAPN14 (11732068_a_at) / RFU TMCC2 (11721928_a_at) / Fold change /veh TMCC2 (11721928_a_at) / RFU IRGQ (11745062_a_at) / Fold change /veh IRGQ (11745062_a_at) / RFU FAM174B (11720279_a_at) / Fold change /veh FAM174B (11720279_a_at) / RFU TMPRSS4 (11748680_a_at) / Fold change /veh TMPRSS4 (11748680_a_at) / RFU FAM212B (11763350_a_at) / Fold change /veh FAM212B (11763350_a_at) / RFU PLEKHG5 (11743358_a_at) / Fold change /veh PLEKHG5 (11743358_a_at) / RFU ZSCAN30 (11745921_a_at) / Fold change /veh ZSCAN30 (11745921_a_at) / RFU CMKLR1 (11741424_a_at) / Fold change /veh CMKLR1 (11741424_a_at) / RFU LOC101060620 /// MAPK8IP1 (11723275_at) / Fold change /veh LOC101060620 /// MAPK8IP1 (11723275_at) / RFU SPTSSB (11747773_x_at) / Fold change /veh SPTSSB (11747773_x_at) / RFU PRSS12 (11739890_at) / Fold change /veh PRSS12 (11739890_at) / RFU BIN1 (11741810_x_at) / Fold change /veh BIN1 (11741810_x_at) / RFU WNT11 (11732464_a_at) / Fold change /veh WNT11 (11732464_a_at) / RFU C10orf10 (11716521_a_at) / Fold change /veh C10orf10 (11716521_a_at) / RFU C5orf56 (11738089_at) / Fold change /veh C5orf56 (11738089_at) / RFU CYB561 (11721691_x_at) / Fold change /veh CYB561 (11721691_x_at) / RFU ANKRD19P (11752326_a_at) / Fold change /veh ANKRD19P (11752326_a_at) / RFU OR2T12 /// OR2T33 /// OR2T8 (11738714_s_at) / Fold change /veh OR2T12 /// OR2T33 /// OR2T8 (11738714_s_at) / RFU VCAN (11748164_a_at) / Fold change /veh VCAN (11748164_a_at) / RFU JSRP1 (11732532_at) / Fold change /veh JSRP1 (11732532_at) / RFU KRTAP10-11 (11738290_x_at) / Fold change /veh KRTAP10-11 (11738290_x_at) / RFU MYO3A (11730013_a_at) / Fold change /veh MYO3A (11730013_a_at) / RFU EBF3 (11725865_a_at) / Fold change /veh EBF3 (11725865_a_at) / RFU CAMK2N1 (11719241_x_at) / Fold change /veh CAMK2N1 (11719241_x_at) / RFU C5orf56 (11738088_a_at) / Fold change /veh C5orf56 (11738088_a_at) / RFU OLFML3 (11715873_a_at) / Fold change /veh OLFML3 (11715873_a_at) / RFU LOC100653217 /// NTM (11731650_a_at) / Fold change /veh LOC100653217 /// NTM (11731650_a_at) / RFU MAPK11 (11762145_a_at) / Fold change /veh MAPK11 (11762145_a_at) / RFU FIZ1 (11724087_x_at) / Fold change /veh FIZ1 (11724087_x_at) / RFU OASL (11726364_x_at) / Fold change /veh OASL (11726364_x_at) / RFU SOX15 (11748057_x_at) / Fold change /veh SOX15 (11748057_x_at) / RFU CD79A (11719716_a_at) / Fold change /veh CD79A (11719716_a_at) / RFU HIST1H1D (11736915_at) / Fold change /veh HIST1H1D (11736915_at) / RFU CASKIN2 (11723855_a_at) / Fold change /veh CASKIN2 (11723855_a_at) / RFU LOC730098 (11760151_x_at) / Fold change /veh LOC730098 (11760151_x_at) / RFU OR4N2 (11742367_at) / Fold change /veh OR4N2 (11742367_at) / RFU PRRT2 (11749266_a_at) / Fold change /veh PRRT2 (11749266_a_at) / RFU SNX32 (11753110_a_at) / Fold change /veh SNX32 (11753110_a_at) / RFU CDHR5 (11726645_a_at) / Fold change /veh CDHR5 (11726645_a_at) / RFU RCAN1 (11760418_a_at) / Fold change /veh RCAN1 (11760418_a_at) / RFU FAM167A (11723789_a_at) / Fold change /veh FAM167A (11723789_a_at) / RFU FAM26E (11764081_at) / Fold change /veh FAM26E (11764081_at) / RFU ISYNA1 (11749810_s_at) / Fold change /veh ISYNA1 (11749810_s_at) / RFU ACY1 (11761880_at) / Fold change /veh ACY1 (11761880_at) / RFU 11764098_at / Fold change /veh 11764098_at / RFU SAMD14 (11745864_x_at) / Fold change /veh SAMD14 (11745864_x_at) / RFU NPB (11741838_a_at) / Fold change /veh NPB (11741838_a_at) / RFU TMPRSS6 (11731388_a_at) / Fold change /veh TMPRSS6 (11731388_a_at) / RFU KRTAP10-2 (11738614_at) / Fold change /veh KRTAP10-2 (11738614_at) / RFU ARHGAP8 /// PRR5-ARHGAP8 (11727945_x_at) / Fold change /veh ARHGAP8 /// PRR5-ARHGAP8 (11727945_x_at) / RFU KRTAP5-7 /// NADSYN1 (11734609_at) / Fold change /veh KRTAP5-7 /// NADSYN1 (11734609_at) / RFU RASL12 (11751679_a_at) / Fold change /veh RASL12 (11751679_a_at) / RFU CDKN2B (11736163_a_at) / Fold change /veh CDKN2B (11736163_a_at) / RFU PRF1 (11729649_at) / Fold change /veh PRF1 (11729649_at) / RFU, ZNF638 /// ZNF638-IT1 / Fold change vs veh, ZNF638 /// ZNF638-IT1 / RFU, PANK3 / Fold change vs veh, PANK3 / RFU, SH3YL1 / Fold change vs veh, SH3YL1 / RFU, ZEB2 / Fold change vs veh, ZEB2 / RFU, NRIP1 / Fold change vs veh, NRIP1 / RFU, PTTG1IP / Fold change vs veh, PTTG1IP / RFU, CAPN2 / Fold change vs veh, CAPN2 / RFU, MED14 / Fold change vs veh, MED14 / RFU, SNORA58 / Fold change vs veh, SNORA58 / RFU, C1orf63 / Fold change vs veh, C1orf63 / RFU, LRRFIP1 / Fold change vs veh, LRRFIP1 / RFU, NDUFAF7 / Fold change vs veh, NDUFAF7 / RFU, SLC12A2 / Fold change vs veh, SLC12A2 / RFU, IBTK / Fold change vs veh, IBTK / RFU, ESF1 / Fold change vs veh, ESF1 / Fold change vs veh, TMEM50B / RFU, TAOK1 / Fold change vs veh, TAOK1 / RFU, ACBD3 / Fold change vs veh, ACBD3 / RFU, TMA16 / Fold change vs veh, TMA16 / RFU, RWDD3 / Fold change vs veh, RWDD3 / RFU, BCAT1 / Fold change vs veh, BCAT1 / RFU, EDEM3 / Fold change vs veh, EDEM3 / RFU, TMEM33 / Fold change vs veh, TMEM33 / RFU, WDR75 / Fold change vs veh, WDR75 / RFU, AHCTF1 / Fold change vs veh, AHCTF1 / RFU, TFRC / Fold change vs veh, TFRC / RFU, ZDHHC17 / Fold change vs veh, ZDHHC17 / RFU, NOM1 / Fold change vs veh, NOM1 / RFU, ARL8B / Fold change vs veh, ARL8B / RFU, ZBTB11 / Fold change vs veh, ZBTB11 / RFU, TAMM41 / Fold change vs veh, TAMM41 / RFU, KIAA1704 /// LOC100996395 / Fold change vs veh, KIAA1704 /// LOC100996395 / RFU, ING1 / Fold change vs veh, ING1 / RFU, TRMT61B / Fold change vs veh, TRMT61B / RFU, FUBP3 / Fold change vs veh, FUBP3 / RFU, TP53 / Fold change vs veh, TP53 / RFU, TNKS2 / Fold change vs veh, TNKS2 / RFU, ZFP14 / Fold change vs veh, ZFP14 / RFU, ACTR2 / Fold change vs veh, ACTR2 / RFU, PPP3R1 / Fold change vs veh, PPP3R1 / RFU, PIK3R1 / Fold change vs veh, PIK3R1 / RFU, HNRNPA1 / Fold change vs veh, HNRNPA1 / RFU, RNF170 / Fold change vs veh, RNF170 / RFU, ZNF28 / Fold change vs veh, ZNF28 / RFU, RNGTT / Fold change vs veh, RNGTT / RFU, OGT / Fold change vs veh, OGT / RFU, BRD1 / Fold change vs veh, BRD1 / RFU, MARS / Fold change vs veh, MARS / RFU, ZNF655 / Fold change vs veh, ZNF655 / RFU, FAHD1 / Fold change vs veh, FAHD1 / RFU, BDP1 / Fold change vs veh, BDP1 / RFU, LRRCC1 / Fold change vs veh, LRRCC1 / RFU, ARID1A / Fold change vs veh, ARID1A / RFU, ZNF146 / Fold change vs veh, ZNF146 / RFU, ZNF330 / Fold change vs veh, ZNF330 / RFU, GPN3 / Fold change vs veh, GPN3 / RFU, C9orf123 / Fold change vs veh, C9orf123 / RFU, N4BP2L2 / Fold change vs veh, N4BP2L2 / RFU, ARFIP1 / Fold change vs veh, ARFIP1 / RFU, FAM179B / Fold change vs veh, FAM179B / RFU, BCL10 / Fold change vs veh, BCL10 / RFU, UHRF1BP1L / Fold change vs veh, UHRF1BP1L / RFU, BET1 / Fold change vs veh, BET1 / RFU, CNOT2 / Fold change vs veh, CNOT2 / RFU, ZNF268 / Fold change vs veh, ZNF268 / Fold change vs veh, ZNF507 / RFU, DGCR2 / Fold change vs veh, DGCR2 / RFU, WDSUB1 / Fold change vs veh, WDSUB1 / Fold change vs veh, HSP90B1 /// MIR3652 / RFU, ADSS / Fold change vs veh, ADSS / RFU, GK / Fold change vs veh, GK / RFU, ZNF148 / Fold change vs veh, ZNF148 / RFU, TAF9 / Fold change vs veh, TAF9 / RFU, SLC1A5 / Fold change vs veh, SLC1A5 / RFU, SLMO2 / Fold change vs veh, SLMO2 / RFU, ABCC4 / Fold change vs veh, ABCC4 / RFU, LOC101060439 /// RAP1B / Fold change vs veh, LOC101060439 /// RAP1B / RFU, RFX7 / Fold change vs veh, RFX7 / RFU, GTPBP10 / Fold change vs veh, GTPBP10 / RFU, CNEP1R1 / Fold change vs veh, CNEP1R1 / RFU, BIVM-ERCC5 /// ERCC5 / Fold change vs veh, BIVM-ERCC5 /// ERCC5 / RFU, ILF3 / Fold change vs veh, ILF3 / RFU 11762660_at / Fold change /veh 11762660_at / RFU VCAN (11757783_s_at) / Fold change /veh VCAN (11757783_s_at) / RFU DDX43 (11728927_at) / Fold change /veh DDX43 (11728927_at) / RFU KRT8 (11758188_x_at) / Fold change /veh KRT8 (11758188_x_at) / RFU NKD1 (11759106_at) / Fold change /veh NKD1 (11759106_at) / RFU SRD5A1 (11742802_a_at) / Fold change /veh SRD5A1 (11742802_a_at) / RFU TPSAB1 /// TPSB2 (11721975_s_at) / Fold change /veh TPSAB1 /// TPSB2 (11721975_s_at) / RFU GSTM3 (11746129_a_at) / Fold change /veh GSTM3 (11746129_a_at) / RFU IL23R (11737362_x_at) / Fold change /veh IL23R (11737362_x_at) / RFU TMEM51 (11727254_a_at) / Fold change /veh TMEM51 (11727254_a_at) / RFU PIWIL2 (11732686_x_at) / Fold change /veh PIWIL2 (11732686_x_at) / RFU ORM1 (11744905_x_at) / Fold change /veh ORM1 (11744905_x_at) / RFU CCDC152 (11743942_at) / Fold change /veh CCDC152 (11743942_at) / RFU ECM1 (11717891_a_at) / Fold change /veh ECM1 (11717891_a_at) / RFU IL23R (11748794_a_at) / Fold change /veh IL23R (11748794_a_at) / RFU TNFAIP8L3 (11732012_x_at) / Fold change /veh TNFAIP8L3 (11732012_x_at) / RFU MBOAT4 (11741988_at) / Fold change /veh MBOAT4 (11741988_at) / RFU 11764193_at / Fold change /veh 11764193_at / RFU TMEM53 (11763286_at) / Fold change /veh TMEM53 (11763286_at) / RFU MAGEB2 (11727129_at) / Fold change /veh MAGEB2 (11727129_at) / RFU TMEM200A (11744735_a_at) / Fold change /veh TMEM200A (11744735_a_at) / RFU CCDC152 (11751479_a_at) / Fold change /veh CCDC152 (11751479_a_at) / RFU FAM211A (11726209_a_at) / Fold change /veh FAM211A (11726209_a_at) / RFU RGS16 (11746705_a_at) / Fold change /veh RGS16 (11746705_a_at) / RFU VCAN (11755009_s_at) / Fold change /veh VCAN (11755009_s_at) / RFU RHOB (11743442_s_at) / Fold change /veh RHOB (11743442_s_at) / RFU RGS16 (11720943_a_at) / Fold change /veh RGS16 (11720943_a_at) / RFU RGS16 (11720944_at) / Fold change /veh RGS16 (11720944_at) / RFU, VPS4B / Fold change vs veh, VPS4B / RFU, CREB1 / Fold change vs veh, CREB1 / RFU, DNAJC13 / Fold change vs veh, DNAJC13 / RFU, GNAQ / Fold change vs veh, GNAQ / RFU, CDK5R1 / Fold change vs veh, CDK5R1 / RFU, ZRANB3 / Fold change vs veh, ZRANB3 / RFU, CUL4A / Fold change vs veh, CUL4A / RFU, CCNY / Fold change vs veh, CCNY / RFU, UFL1 / Fold change vs veh, UFL1 / RFU, COG3 / Fold change vs veh, COG3 / RFU, DIAPH2 / Fold change vs veh, DIAPH2 / RFU, SKA2 / Fold change vs veh, SKA2 / RFU, AFF3 / Fold change vs veh, AFF3 / RFU, LMF1 / Fold change vs veh, LMF1 / RFU, IPO11 / Fold change vs veh, IPO11 / RFU, DFFB / Fold change vs veh, DFFB / RFU, FOXP1 / Fold change vs veh, FOXP1 / RFU, CARD8 / Fold change vs veh, CARD8 / RFU, STRN3 / Fold change vs veh, STRN3 / RFU, ADK / Fold change vs veh, ADK / RFU, RASSF2 / Fold change vs veh, RASSF2 / RFU, WIPF1 / Fold change vs veh, WIPF1 / RFU, LARP1B / Fold change vs veh, LARP1B / RFU, RASA1 / Fold change vs veh, RASA1 / RFU, RB1 / Fold change vs veh, RB1 / RFU, PPFIA1 / Fold change vs veh, PPFIA1 / RFU, MAT2A / Fold change vs veh, MAT2A / RFU, CCT5 / Fold change vs veh, CCT5 / RFU, WDR92 / Fold change vs veh, WDR92 / RFU, CUX1 / Fold change vs veh, CUX1 / RFU, TTC7A / Fold change vs veh, TTC7A / RFU, TMEM135 / Fold change vs veh, TMEM135 / RFU, DEPTOR / Fold change vs veh, DEPTOR / RFU, CPM / Fold change vs veh, CPM / RFU, DNAJB6 / Fold change vs veh, DNAJB6 / RFU, CACNA2D3 / Fold change vs veh, CACNA2D3 / RFU, DTX4 / Fold change vs veh, DTX4 / RFU, TFCP2 / Fold change vs veh, TFCP2 / RFU, GMCL1 /// GMCL1P1 / Fold change vs veh, GMCL1 /// GMCL1P1 / RFU, AEBP2 / Fold change vs veh, AEBP2 / RFU, SNHG1 /// SNORD22 /// SNORD25 /// SNORD26 /// SNORD27 /// SNORD28 /// SNORD29 /// SNORD31 / Fold change vs veh, SNHG1 /// SNORD22 /// SNORD25 /// SNORD26 /// SNORD27 /// SNORD28 /// SNORD29 /// SNORD31 / Fold change (Aza/veh), C12orf56 (ProbeSet 11735607_a_at) / Fold change (ACY-1035/veh), C12orf56 (ProbeSet 11735607_a_at) / Fold change (Aza/veh), FGFR1OP (ProbeSet 11751329_s_at) / Fold change (ACY-1035/veh), FGFR1OP (ProbeSet 11751329_s_at) / Fold change (Aza/veh), VPS36 (ProbeSet 11739960_a_at) / Fold change (ACY-1035/veh), VPS36 (ProbeSet 11739960_a_at) / RFU SYPL1 (11715823_x_at) / Fold change /veh SYPL1 (11715823_x_at) / RFU IGFBP7 (11715501_s_at) / Fold change /veh IGFBP7 (11715501_s_at) / RFU REEP3 (11722064_at) / Fold change /veh REEP3 (11722064_at) / RFU IGLL1 (11728026_x_at) / Fold change /veh IGLL1 (11728026_x_at): dose or concentration left out as unconfirmed
Conditions: ProbeSet 11732277_a_at; LIST D

Nc1ccc(-c2cccs2)cc1NC(=O)c1ccc2c(c1)cc(C1CC1)n2CCN1CCOCC1 [ACY-1035]
Fold change vs veh, FOXP1: 0.94
